Ends that are not written are not given here.
Columns and labels:
[1] = assay type: in vivo, Female C57BL/6J mice; conditions: glucose 0.35 g/kg i.v. alone; plasma ELISA; n=15
[2] = ref [10]; cited from earlier work

| Molecule | Insulin peak concentration at 1 min [1] | Effect on insulin clearance [2] | Effect on insulin secretion [2] |
| --- | --- | --- | --- |
| OC[C@H]1OC(O)[C@H](O)[C@@H](O)[C@@H]1O (stereo partly drawn) [glucose] | 0.9 ± 0.2 nmol/L | – | – |
| GLP-1 (HAEGTFTSDVSSYLEGQAAKEFIAWLVKGR; ends and bridges not checked; UniProt P01275 98-127, looked up) | – | diminish insulin clearance | stimulate insulin secretion |
